In ChEMBL document CHEMBL1135208, “Syntheses and EGFR and HER-2 kinase inhibitory activities of 4-anilinoquinoline-3-carbonitriles: analogues of three important 4-anilinoquinazolines currently undergoing clinical evaluation as therapeutic antitumor agents” (Bioorg Med Chem Lett, 2002):
Values after ≈ are worked out from the molar mass of the structure shown.

Experiments:
[1] = tested on: A-431; assay: cells; type: functional, cell-based; conditions: Homo sapiens
Description: Inhibition of A431 cell proliferation

[2] = target: Epidermal growth factor receptor (Homo sapiens, UniProt P00533)
Epidermal growth factor receptor, sequence (P00533 whole entry): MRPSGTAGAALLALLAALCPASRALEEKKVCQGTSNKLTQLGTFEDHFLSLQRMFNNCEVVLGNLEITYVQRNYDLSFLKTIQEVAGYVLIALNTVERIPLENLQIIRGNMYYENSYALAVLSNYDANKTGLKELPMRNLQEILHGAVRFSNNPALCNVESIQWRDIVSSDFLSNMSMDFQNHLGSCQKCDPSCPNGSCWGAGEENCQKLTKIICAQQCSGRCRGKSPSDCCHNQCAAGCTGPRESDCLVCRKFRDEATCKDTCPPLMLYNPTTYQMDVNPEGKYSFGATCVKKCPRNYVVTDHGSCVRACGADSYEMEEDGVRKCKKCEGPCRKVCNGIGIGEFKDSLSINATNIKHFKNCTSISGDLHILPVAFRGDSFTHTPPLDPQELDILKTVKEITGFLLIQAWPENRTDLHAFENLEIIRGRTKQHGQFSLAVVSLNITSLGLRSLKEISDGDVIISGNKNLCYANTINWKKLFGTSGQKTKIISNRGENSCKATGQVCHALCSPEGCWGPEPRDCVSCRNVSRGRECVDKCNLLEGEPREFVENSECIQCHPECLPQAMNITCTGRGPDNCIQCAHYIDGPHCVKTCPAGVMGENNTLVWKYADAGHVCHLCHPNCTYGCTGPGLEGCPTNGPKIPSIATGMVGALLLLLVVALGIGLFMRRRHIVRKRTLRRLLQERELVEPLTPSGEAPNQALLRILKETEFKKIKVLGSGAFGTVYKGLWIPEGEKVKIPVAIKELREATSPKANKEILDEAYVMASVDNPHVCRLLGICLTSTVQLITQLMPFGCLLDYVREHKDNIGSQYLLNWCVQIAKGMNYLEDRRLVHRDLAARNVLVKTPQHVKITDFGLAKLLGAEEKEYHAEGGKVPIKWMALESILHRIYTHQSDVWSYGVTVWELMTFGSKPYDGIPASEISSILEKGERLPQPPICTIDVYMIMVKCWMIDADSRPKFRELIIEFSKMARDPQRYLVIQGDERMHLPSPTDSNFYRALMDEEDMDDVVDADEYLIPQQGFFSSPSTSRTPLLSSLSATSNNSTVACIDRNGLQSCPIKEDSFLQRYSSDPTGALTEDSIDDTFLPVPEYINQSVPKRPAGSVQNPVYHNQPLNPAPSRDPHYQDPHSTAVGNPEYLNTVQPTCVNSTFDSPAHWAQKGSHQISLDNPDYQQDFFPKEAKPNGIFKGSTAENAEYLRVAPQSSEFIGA
Description: Inhibition of Epidermal Growth Factor Receptor (EGFR) autophosphorylation

[3] = tested on: SW-620; assay: cells; type: functional, cell-based; conditions: Homo sapiens
Description: Inhibition of SW-620 cell proliferation

[4] = tested on: SK-BR-3; assay: cells; type: functional, cell-based; conditions: Homo sapiens
Description: Inhibition of SKBR-3 cell proliferation

[5] = target: Receptor tyrosine-protein kinase erbB-2 (Homo sapiens, UniProt P04626)
Receptor tyrosine-protein kinase erbB-2, sequence (P04626 whole entry): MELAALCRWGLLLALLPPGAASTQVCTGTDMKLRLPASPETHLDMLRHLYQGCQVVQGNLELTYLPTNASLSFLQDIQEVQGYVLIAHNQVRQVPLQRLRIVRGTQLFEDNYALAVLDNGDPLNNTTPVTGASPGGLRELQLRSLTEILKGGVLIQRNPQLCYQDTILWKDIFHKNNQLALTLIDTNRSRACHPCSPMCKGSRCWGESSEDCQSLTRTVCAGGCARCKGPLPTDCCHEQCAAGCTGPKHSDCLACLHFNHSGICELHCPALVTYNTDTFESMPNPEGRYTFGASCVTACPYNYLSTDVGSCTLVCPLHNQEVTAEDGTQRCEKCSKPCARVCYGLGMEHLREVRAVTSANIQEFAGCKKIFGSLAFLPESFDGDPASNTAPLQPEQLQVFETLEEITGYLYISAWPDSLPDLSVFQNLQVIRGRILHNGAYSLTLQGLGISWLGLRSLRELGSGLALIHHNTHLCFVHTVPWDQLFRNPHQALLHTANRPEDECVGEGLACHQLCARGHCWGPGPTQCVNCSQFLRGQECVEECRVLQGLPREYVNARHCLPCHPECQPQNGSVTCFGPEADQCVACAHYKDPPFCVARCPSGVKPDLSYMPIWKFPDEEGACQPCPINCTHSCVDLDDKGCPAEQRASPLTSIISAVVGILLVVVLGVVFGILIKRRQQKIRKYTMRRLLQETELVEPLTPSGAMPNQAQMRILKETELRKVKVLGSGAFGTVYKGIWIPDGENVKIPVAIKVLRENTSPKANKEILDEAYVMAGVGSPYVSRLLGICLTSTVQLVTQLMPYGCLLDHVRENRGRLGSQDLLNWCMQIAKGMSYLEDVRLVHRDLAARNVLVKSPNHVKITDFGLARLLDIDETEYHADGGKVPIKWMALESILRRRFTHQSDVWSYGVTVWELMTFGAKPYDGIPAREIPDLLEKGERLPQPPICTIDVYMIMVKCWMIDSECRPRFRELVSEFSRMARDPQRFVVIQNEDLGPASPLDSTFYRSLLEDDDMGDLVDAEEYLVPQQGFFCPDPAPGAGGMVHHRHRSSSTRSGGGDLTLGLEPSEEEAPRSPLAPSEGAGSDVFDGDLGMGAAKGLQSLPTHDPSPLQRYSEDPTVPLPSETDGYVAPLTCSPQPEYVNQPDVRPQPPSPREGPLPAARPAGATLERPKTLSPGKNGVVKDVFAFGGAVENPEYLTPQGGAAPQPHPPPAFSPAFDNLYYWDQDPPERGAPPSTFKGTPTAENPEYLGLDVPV
Description: Inhibition of human epidermal growth factor receptor-2 autophosphorylation

## C=CC(=O)Nc1cc2c(Nc3ccc(F)c(Cl)c3)c(C#N)cnc2cc1OCCCN1CCOCC1
[1]
  IC50: 0.12 µg/mL (≈ 0.235 µM)
[2]
  IC50: 80 nM
[3]
  IC50: 0.77 µg/mL (≈ 1.51 µM)
[4]
  IC50: 0.03 µg/mL (≈ 0.0588 µM)
[5]
  IC50: 1690 nM

## C#Cc1cccc(Nc2c(C#N)cnc3cc(OCCOC)c(OCCOC)cc23)c1
[1]
  IC50: 0.173 µg/mL (≈ 0.414 µM)
[2]
  IC50: 850 nM
[3]
  IC50: 0.68 µg/mL (≈ 1.63 µM)
[4]
  IC50: 0.071 µg/mL (≈ 0.17 µM)
[5]
  IC50: 11800 nM

## CCOc1cc2ncc(C#N)c(Nc3ccc(F)c(Cl)c3)c2cc1NC(=O)/C=C/CN(C)C [PELITINIB]
[1]
  IC50: 0.03 µg/mL (≈ 0.0641 µM)
[3]
  IC50: 0.317 µg/mL (≈ 0.677 µM)
[4]
  IC50: 0.007 µg/mL (≈ 0.015 µM)
[5]
  IC50: 1230 nM

## COc1cc2ncc(C#N)c(Nc3ccc(F)c(Cl)c3)c2cc1OCCCN1CCOCC1
[1]
  IC50: 0.25 µg/mL (≈ 0.531 µM)
[2]
  IC50: 1040 nM
[3]
  IC50: > 5 µg/mL
[4]
  IC50: 0.332 µg/mL (≈ 0.705 µM)
[5]
  IC50: 14700 nM

## C=CC(=O)Nc1cc2c(Nc3ccc(F)c(Cl)c3)ncnc2cc1OCCCN1CCOCC1 [CANERTINIB]
[1]
  IC50: 0.083 µg/mL (≈ 0.171 µM)
[3]
  IC50: 1.45 µg/mL (≈ 2.98 µM)
[4]
  IC50: 0.102 µg/mL (≈ 0.21 µM)
